Experimental data published in patent EP1500403A1, “PREVENTIVE/REMEDY FOR DIABETES” (Ajinomoto Co., Inc., priority 2002, dated 2003).

Legend:
[1] = system: Renal brush border membrane; assay: Assessment of inhibitory action of glucose uptake, 14C-D-glucose (Test Example 1A); format: biochemical, rat; conditions: incubation 37 °C 30 minutes, 14C-D-glucose one minute
Protocol: Test compounds were dissolved in 100 mM mannitol-10 mM HEPES/Tris, pH 7.4 to prepare solutions at various concentrations.
Renal brush border membrane was prepared from a rat kidney, to which a solution of a test compound was added for incubation at 37 °C for 30 minutes. Then, ^14C-D-glucose was added for incubation for one minute. A solution containing 1 mM phlorizin was used to terminate the glucose uptake reaction. The radioactivity ^14C of ^14C-D-glucose incorporated in the renal brush border membrane was counted with a liquid scintillation counter. The glucose uptake independent on sodium was reduced from the glucose uptake in a control group or a test group, to calculate the inhibition intensity.

glucose-loaded mice = assay: Blood glucose time course after oral glucose loading in KK mice (Example II); format: in vivo; conditions: glucose 1 g/kg p.o.; for increase of blood glucose / hyperglycemia 30 minutes after glucose loading: metformin 200 mg/kg or inhibitor A 30 mg/kg p.o.; for pattern of glycemic suppression at elevated dose: metformin 300 mg/kg or inhibitor A 45 mg/kg p.o., vs lower dose (Fig. 3)
Protocol: KK mice (age of 25 weeks; male) fed with a commercially available high-calories feed for breeding (CMF; Oriental Yeast) were divided into groups with matched body weights. After starvation for 17 hours, glucose was orally given at 1 g/kg. Immediately thereafter, the inhibitor A of renal glucose reabsorption (30 mg/kg or 45 mg/kg) or metformin (200 mg/kg or 300 mg/kg) was orally given. Additionally, a group given with the inhibitor A of renal glucose reabsorption (30 mg/kg) and metformin (200 mg/kg) was prepared. A vehicle was orally given to a control group after glucose dosing.
Blood glucose level was assayed in a time course.

[2] = system: Type 2 diabetes model Zucker diabetic fatty rats; assay: Insulin content in pancreas after repeated dosing in Zucker diabetic fatty rats, ELISA (Example V); format: in vivo; conditions: twice daily p.o., day 39, starved 18 hours, inhibitor A 30 mg/kg, metformin 200 mg/kg, or both, ELISA of pancreas homogenates (Fig. 5)
Protocol: The agents were orally given twice daily at the same time period as in the case of the groups administered with a single one of these agents. Only a vehicle was orally given twice daily to the animals in a control group. On day 39 from the start of administration, the animals were starved for 18 hours. Then, pancreas was resected from the animals, for the assay of insulin in pancreas homogenates by ELISA, to compare the groups in terms of insulin content in pancreas.

Male Wistar rats = assay: Evaluation of urine sugar excretion action in rats (Test Example 1); format: in vivo; conditions: 100 mg/kg p.o. in olive oil, urine collected 24 hours, per individual per day
Protocol: Male Wistar rats aged 5 weeks (purchased from Charles River Japan, Inc.) were acclimatized in metabolic cages for one week, for use at this experiment. The test compounds suspended in olive oil were prepared into a 20 mg/ml solution to a dose of 5 ml per 1 kg rat body weight.
After the rats were starved for 4 hours, the test compounds were orally given at 100 mg/kg to the rats at 11 am. Immediately after dosing until 24 hours later, urine was collected. The volume of urine was measured. Then, urine sugar concentration was assayed by glucose oxidase method, to calculate the glucose excretion into urine per individual per day.

glucose-loaded rats = assay: Blood glucose time course after oral glucose loading in rats (Example I); format: in vivo; conditions: Wistar rats, glucose 1 g/kg p.o.
Protocol: Wistar rats (age of 7 weeks; male) were divided into groups with matched body weights. After 17-hour starvation, glucose was orally given at 1 g/kg to the animals. Immediately after the administration, the inhibitor A of renal glucose reabsorption or the inhibitor B of renal glucose reabsorption (A at 30 mg/kg or 60 mg/kg; B at 30 mg/kg or 80 mg/kg) or glibenclamide (1 mg/kg or 2 mg/kg) or nateglinide (50 mg/kg or 80 mg/kg) was orally given. Additionally, a group on the combined use of both of an inhibitor of renal glucose reabsorption and a hypoglycemic agent was also prepared. A vehicle was orally given to a control group after glucose administration.
Blood glucose was measured in a time course.

[3] = system: Type 2 diabetic model GK rats; assay: Blood glucose after repeated once daily dosing in GK rats (Example III); format: in vivo; conditions: once daily p.o., day 25, glibenclamide 3 mg/kg, inhibitor A 30 mg/kg, or both, vs vehicle-dosed group (Fig. 4)
Protocol: These agents were orally given once daily at the same time period as in the group administered with a single one agent. Only a vehicle was given orally to a control group. On day 25 after the start of administration, blood glucose was assayed sequentially, to compare the groups in terms of the resulting blood glucose levels.

[4] = glibenclamide 1 mg/kg, inhibitor A 30 mg/kg, or both, p.o., vs vehicle group (Fig. 1)
[5] = inhibitor A 30 mg/kg p.o., vs control group (Fig. 3)

CCc1ccc(Cc2c(O[C@@H]3O[C@H](C(=O)O)[C@@H](O)[C@H](O)[C@H]3O)n[nH]c2C(F)(F)F)cc1 [Compound of Production Example 2-A, 4-((4-ethylphenyl)methyl)-5-(trifluoromethyl)-1H-pyrazol-3-yl-β-D-glucopyranoside uronic acid]
Inhibition intensity (concentration of test compound) ([1]; 100 µM test compound): 30 % (100 µM)

CSc1ccc(Cc2c(O[C@@H]3O[C@H](CO)[C@@H](O)[C@H](O)[C@H]3O)n[nH]c2C(F)(F)F)cc1 [Compound of Production Example 1-A, 4-((4-methylthiophenyl)methyl)-5-(trifluoromethyl)-1H-pyrazole-3-o-β-D-glucopyranoside]
Inhibition intensity (concentration of test compound) ([1]; 10 µM test compound): 84 % (10 µM)

CN(C)C(=N)N=C(N)N [metformin]
increase of blood glucose / hyperglycemia 30 minutes after glucose loading (glucose-loaded mice; vs control group (Fig. 3)): did not suppress the increase of blood glucose | increase of blood glucose 60 minutes later and thereafter (glucose-loaded mice; metformin 200 mg/kg p.o. (Fig. 3)): suppressed the increase | pattern of glycemic suppression at elevated dose (glucose-loaded mice): did not change | insulin content in pancreas [2]: no difference was observed

CCc1ccc(Cc2c(O[C@@H]3O[C@H](COC(=O)OC)[C@@H](O)[C@H](O)[C@H]3O)nn(C3CCC3)c2C(F)(F)F)cc1 [Compound of Production Example 2, 1'-cyclobutyl-4'-[(4-ethylphenyl)methyl]-5'-trifluoromethyl-1H-pyrazole-3'-o-(6-carbomethoxy)-β-D-glucopyranoside]
Urine sugar excretion (Male Wistar rats): 656 mg

CCc1ccc(Cc2c(O[C@@H]3O[C@H](CO)[C@@H](O)[C@H](O)[C@H]3O)nn(C3CCC3)c2C(F)(F)F)cc1 [1'-cyclobutyl-4'-[(4-ethylphenyl)methyl]-5'-trifluoromethyl-1H-pyrazole-3'-o-β-D-glucopyranoside]
blood glucose level 120 minutes after glucose loading and thereafter (glucose-loaded rats; [4]): did not lower the blood glucose level 120 minutes after glucose loading and thereafter as greatly as glibenclamide did | hyperglycemia / blood glucose level immediately after glucose loading (30 minutes) (glucose-loaded rats; [4]): suppressed hyperglycemia | pattern of glycemic suppression at increased dose (glucose-loaded rats; glibenclamide 2 mg/kg or inhibitor A 60 mg/kg p.o., vs lower dose (Fig. 1)): did not change | blood glucose level 2 hours later and thereafter (glucose-loaded mice; [5]): could not suppress the blood glucose level | hyperglycemia 60 minutes after glucose loading (glucose-loaded mice; [5]): could suppress hyperglycemia | increase of blood glucose / hyperglycemia 30 minutes after glucose loading (glucose-loaded mice; vs control group (Fig. 3)): could suppress hyperglycemia | pattern of glycemic suppression at elevated dose (glucose-loaded mice): did not change | blood glucose level [3]: significantly lowered | insulin content in pancreas [2]: no difference was observed

CCc1ccc(Cc2c(O[C@@H]3O[C@H](COC(=O)OC)[C@@H](O)[C@H](O)[C@H]3O)nn(C3CCCC3)c2C(F)(F)F)cc1 [Compound of Production Example 4, 1'-cyclopentyl-4'-[(4-ethylphenyl)methyl]-5'-trifluoromethyl-1H-pyrazole-3'-o-(6-carbomethoxy)-β-D-glucopyranoside]
Urine sugar excretion (Male Wistar rats): 452 mg
